Measurements published in PubChem BioAssay AID330 (DTP/NCI, 2004).
Where “and” joins values, the source holds several entries; their conditions need not be identical. Equal entries are not always repeated. Toxic doses and inconclusive results are not listed.

System: P388 leukemia ip, CD2F1 mice, survival T/C
Experiment: NCI In Vivo Anticancer Drug Screen. Data for tumor model P388 Leukemia (intraperitoneal) in CD2F1 (CDF1) mice
Details: endpoint: median survival time, higher = longer survival
How it was run: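 Mice carrying the transplanted tumor received test compound or vehicle. Survival was recorded in each group, and the value is the treated-group measurement divided by that of the vehicle-treated control group.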

[1] = dose: 50.0 mg/kg/injection, schedule: Q01DX005 (ip), vehicle: Klucel (hydroxypropylcellulose) (HPC)
[2] = dose: 50.0 mg/kg/injection, schedule: Q01DX005 (ip), vehicle: saline with Tween-80
[3] = dose: 100.0 mg/kg/injection, schedule: Q01DX005 (ip), vehicle: saline with Tween-80
[4] = dose: 200.0 mg/kg/injection, schedule: Q01DX005 (ip), vehicle: saline with Tween-80
[5] = dose: 60.0 mg/kg/injection, schedule: Q01DX005 (ip), vehicle: saline with Tween-80
[6] = dose: 120.0 mg/kg/injection, schedule: Q01DX005 (ip), vehicle: saline with Tween-80
[7] = dose: 240.0 mg/kg/injection, schedule: Q01DX005 (ip), vehicle: saline with Tween-80
[8] = dose: 50.0 mg/kg/injection, schedule: Q01DX009 (ip), vehicle: Klucel (hydroxypropylcellulose) (HPC)
[9] = dose: 100.0 mg/kg/injection, schedule: Q01DX009 (ip), vehicle: Klucel (hydroxypropylcellulose) (HPC)

Structure (SMILES): CC(C)C(N)C(=O)Nc1nncs1 (configuration not stated)
- T/C (dose: 100.0 mg/kg/injection, schedule: Q04DX002 (ip), vehicle: saline): 106 % of control
- T/C (dose: 200.0 mg/kg/injection, schedule: Q04DX002 (ip), vehicle: saline): 183 % of control
- T/C (dose: 400.0 mg/kg/injection, schedule: Q04DX002 (ip), vehicle: saline): 157 % of control and 190 % of control
- T/C (dose: 600.0 mg/kg/injection, schedule: Q04DX002 (ip), vehicle: saline): 171 % of control

Structure (SMILES): Cc1cc(=O)[nH]c2ccc3ccccc3c12
- T/C (dose: 12.5 mg/kg/injection, schedule: Q01DX005 (ip), vehicle: Klucel (hydroxypropylcellulose) (HPC)): 91 % of control
- T/C (dose: 25.0 mg/kg/injection, schedule: Q01DX005 (ip), vehicle: Klucel (hydroxypropylcellulose) (HPC)): 91 % of control
- T/C [1]: 86 % of control

Structure (SMILES): COc1cc(C(=O)NC2CCc3cc(OC)c(OC)c(OC)c3-c3ccc(OC)c(=O)cc32)cc(OC)c1OC (configuration not stated)
- T/C (dose: 1.25 mg/kg/injection, schedule: Q01DX009 (ip), vehicle: Klucel (hydroxypropylcellulose) (HPC)): 119 % of control
- T/C (dose: 2.5 mg/kg/injection, schedule: Q01DX009 (ip), vehicle: Klucel (hydroxypropylcellulose) (HPC)): 124 % of control
- T/C (dose: 10.0 mg/kg/injection, schedule: Q01DX009 (ip), vehicle: Klucel (hydroxypropylcellulose) (HPC)): 152 % of control and 154 % of control
- T/C (dose: 20.0 mg/kg/injection, schedule: Q01DX009 (ip), vehicle: Klucel (hydroxypropylcellulose) (HPC)): 155 % of control and 163 % of control

Structure (SMILES): CC(C)(C)OC(=O)NC(COCc1ccccc1)C(=O)O (configuration not stated)
- T/C [2]: 103 % of control
- T/C [3]: 98 % of control
- T/C [4]: 97 % of control

Structure (SMILES): CC12CCC(O)CC1CCC1C2C(O)CC2(C)C1CCC2(C)O (configuration not stated)
- T/C (dose: 100.0 mg/kg/injection, schedule: Q04DX003 (ip), vehicle: alcohol): 105 % of control
- T/C (dose: 200.0 mg/kg/injection, schedule: Q04DX003 (ip), vehicle: alcohol): 90 % of control
- T/C (dose: 400.0 mg/kg/injection, schedule: Q04DX003 (ip), vehicle: alcohol): 115 % of control

Structure (SMILES): Oc1c(Cl)cc(Cl)cc1/C=N/NC(=S)Nc1cc(C(F)(F)F)cc(C(F)(F)F)c1
- T/C (dose: 12.5 mg/kg/injection, schedule: Q01DX009 (ip), vehicle: olive oil, sesame oil, peanut oil): 105 % of control
- T/C (dose: 25.0 mg/kg/injection, schedule: Q01DX009 (ip), vehicle: olive oil, sesame oil, peanut oil): 107 % of control
- T/C (dose: 50.0 mg/kg/injection, schedule: Q01DX009 (ip), vehicle: olive oil, sesame oil, peanut oil): 120 % of control
- T/C (dose: 50.0 mg/kg/injection, schedule: Q01DX009 (oral), vehicle: saline with Tween-80): 92 % of control
- T/C (dose: 100.0 mg/kg/injection, schedule: Q01DX009 (ip), vehicle: olive oil, sesame oil, peanut oil): 86 % of control
- T/C (dose: 100.0 mg/kg/injection, schedule: Q01DX009 (oral), vehicle: saline with Tween-80): 108 % of control
- T/C (dose: 200.0 mg/kg/injection, schedule: Q01DX009 (oral), vehicle: saline with Tween-80): 99 % of control
- T/C (dose: 400.0 mg/kg/injection, schedule: Q01DX009 (oral), vehicle: saline with Tween-80): 90 % of control

Structure (SMILES): COc1ccc2c(c1OC)CN1CCc3cc4c(cc3C1C2C)OCO4 (configuration not stated)
- T/C (dose: 50.0 mg/kg/injection, schedule: Q04DX003 (ip), vehicle: distilled water + Tween-80): 91 % of control
- T/C (dose: 100.0 mg/kg/injection, schedule: Q04DX003 (ip), vehicle: distilled water + Tween-80): 96 % of control
- T/C (dose: 200.0 mg/kg/injection, schedule: Q04DX003 (ip), vehicle: distilled water + Tween-80): 91 % of control
- T/C (dose: 400.0 mg/kg/injection, schedule: Q04DX003 (ip), vehicle: distilled water + Tween-80): 89 % of control

Structure (SMILES): OCC(O)c1c(-c2ccccc2)c(-c2ccccc2)c2n1CCC2 (configuration not stated)
- T/C [1]: 96 % of control
- T/C (dose: 100.0 mg/kg/injection, schedule: Q01DX005 (ip), vehicle: Klucel (hydroxypropylcellulose) (HPC)): 93 % of control
- T/C (dose: 200.0 mg/kg/injection, schedule: Q01DX005 (ip), vehicle: Klucel (hydroxypropylcellulose) (HPC)): 92 % of control

Structure (SMILES): CCCCOc1cccc2c(NCCCCCCCCNc3c4ccccc4nc4c(OCCCC)cccc34)c3ccccc3nc12
- T/C (dose: 0.62 mg/kg/injection, schedule: Q## X009 (ip), vehicle: lactic acid): 107 % of control
- T/C (dose: 1.25 mg/kg/injection, schedule: Q## X009 (ip), vehicle: lactic acid): 99 % of control
- T/C (dose: 2.5 mg/kg/injection, schedule: Q## X009 (ip), vehicle: lactic acid): 99 % of control
- T/C (dose: 5.0 mg/kg/injection, schedule: Q## X009 (ip), vehicle: lactic acid): 106 % of control
- T/C (dose: 10.0 mg/kg/injection, schedule: Q## X009 (ip), vehicle: lactic acid): 91 % of control

Structure (SMILES): Cc1ccc(/C=N/NC(=O)CNC(=O)c2ccccc2)cc1
- T/C [5]: 97 % of control
- T/C [6]: 92 % of control
- T/C [7]: 97 % of control

Structure (SMILES): O=C(O)CCCOc1ccc(Cl)cc1Cl
- T/C (dose: 100.0 mg/kg/injection, schedule: Q04DX003 (ip), vehicle: saline): 109 % of control
- T/C (dose: 200.0 mg/kg/injection, schedule: Q04DX003 (ip), vehicle: saline): 100 % of control
- T/C (dose: 400.0 mg/kg/injection, schedule: Q04DX003 (ip), vehicle: saline): 100 % of control

Structure (SMILES): Clc1cccc(Cl)c1C1CSc2ccccc2N=C1c1ccccc1 (configuration not stated)
- T/C [8]: 94 % of control
- T/C [9]: 100 % of control
- T/C (dose: 200.0 mg/kg/injection, schedule: Q01DX009 (ip), vehicle: Klucel (hydroxypropylcellulose) (HPC)): 100 % of control

Structure (SMILES): CC1(c2ccccc2)COC(=O)O/C1=N/OCc1ccccc1 (configuration not stated)
- T/C [2]: 100 % of control
- T/C [3]: 107 % of control
- T/C [4]: 99 % of control

Structure (SMILES): CSc1sc(C#N)c(N)c1N=Cc1ccccc1
- T/C (dose: 12.5 mg/kg/injection, schedule: Q04DX002 (ip), vehicle: saline with Tween-80): 106 % of control
- T/C (dose: 25.0 mg/kg/injection, schedule: Q04DX002 (ip), vehicle: saline with Tween-80): 101 % of control
- T/C (dose: 50.0 mg/kg/injection, schedule: Q04DX002 (ip), vehicle: saline with Tween-80): 97 % of control

Structure (SMILES): CCC(C)C1SCC(=O)N1c1nncs1 (configuration not stated)
- T/C [5]: 104 % of control
- T/C [6]: 100 % of control
- T/C [7]: 107 % of control

Structure (SMILES): CC[CH2][Sn]([Cl])([Cl])[CH2]CC.Oc1ccccc1C=NCCN=Cc1ccccc1O
- T/C (dose: 0.6 mg/kg/injection, schedule: Q01DX009 (ip), vehicle: gum acacia): 111 % of control
- T/C (dose: 5.0 mg/kg/injection, schedule: Q01DX009 (ip), vehicle: gum acacia): 159 % of control

Structure (SMILES): Cc1ccc(S(=O)(=O)Nc2ccc(-c3cc4cc(Cl)ccc4o3)cc2)cc1
- T/C (dose: 6.25 mg/kg/injection, schedule: Q01DX005 (ip), vehicle: saline with Tween-80): 92 % of control
- T/C (dose: 12.5 mg/kg/injection, schedule: Q01DX005 (ip), vehicle: saline with Tween-80): 91 % of control
- T/C (dose: 25.0 mg/kg/injection, schedule: Q01DX005 (ip), vehicle: saline with Tween-80): 87 % of control

Structure (SMILES): COc1ccc(S(=O)(=O)N2OC2c2ccccc2)cc1 (configuration not stated)
- T/C [8]: 100 % of control
- T/C [9]: 100 % of control

Structure (SMILES): Clc1ccc(Cl)c(N=NNc2cc(Cl)ccc2Cl)c1
- T/C (dose: 12.5 mg/kg/injection, schedule: Q01DX009 (ip), vehicle: saline with Tween-80): 96 % of control
- T/C (dose: 25.0 mg/kg/injection, schedule: Q01DX009 (ip), vehicle: saline with Tween-80): 99 % of control
- T/C (dose: 25.0 mg/kg/injection, schedule: Q01DX009 (ip), vehicle: saline): 98 % of control
- T/C (dose: 50.0 mg/kg/injection, schedule: Q01DX009 (ip), vehicle: saline with Tween-80): 97 % of control
- T/C (dose: 50.0 mg/kg/injection, schedule: Q01DX009 (ip), vehicle: saline): 94 % of control
- T/C (dose: 100.0 mg/kg/injection, schedule: Q01DX009 (ip), vehicle: saline with Tween-80): 98 % of control
- T/C (dose: 100.0 mg/kg/injection, schedule: Q01DX009 (ip), vehicle: saline): 92 % of control
- T/C (dose: 100.0 mg/kg/injection, schedule: Q04DX003 (ip), vehicle: saline with Tween-80): 104 % of control
- T/C (dose: 200.0 mg/kg/injection, schedule: Q01DX009 (ip), vehicle: saline with Tween-80): 88 % of control
- T/C (dose: 200.0 mg/kg/injection, schedule: Q01DX009 (ip), vehicle: saline): 92 % of control
- T/C (dose: 200.0 mg/kg/injection, schedule: Q04DX003 (ip), vehicle: saline with Tween-80): 104 % of control
- T/C (dose: 400.0 mg/kg/injection, schedule: Q04DX003 (ip), vehicle: saline with Tween-80): 95 % of control

Structure (SMILES): NC(CS)=NCC12CC3CC(CC(C3)C1)C2
- T/C (dose: 7.5 mg/kg/injection, schedule: Q01DX005 (ip), vehicle: saline with Tween-80): 100 % of control
- T/C (dose: 15.0 mg/kg/injection, schedule: Q01DX005 (ip), vehicle: saline with Tween-80): 100 % of control
- T/C (dose: 30.0 mg/kg/injection, schedule: Q01DX005 (ip), vehicle: saline with Tween-80): 115 % of control
